Six compounds from EPA's ToxValDB 9.5 can be followed below.

Each structure is given as a SMILES string. Values joined by “and” are separate entries in the source; they are usually repeats but may differ in a detail not shown here. Equal values may be shown once.

Data set [1] relates to Rattus norvegicus. The settings on record: chronic, M/F.
In data set [2] the test system is Oryctolagus sp. The following applies: acute; oral.
In data set [3] the test system is Rattus norvegicus. The settings on record: for NOAEL: Sprague-Dawley.
The subject of data set [4] is Rattus norvegicus.
Data set [5] concerns Rattus norvegicus. The following applies: short-term; duration: 3 days; injection; subcutaneous; F; Crj:CD; uterus: uterine dry weight (absolute).
The test system of data set [6] is Rattus norvegicus. The settings on record: for LEL: uterotrophic, Active; for NOEL: Hershberger, oral, gavage.
Data set [7] concerns Mus musculus. The following applies: uterotrophic, Active.
Data set [8] concerns Rattus norvegicus. The following applies: subchronic, oral, M/F.
[9] abbreviates: duration: 1 days, injection, subcutaneous.
Where [10] appears, read: duration: 7 days, injection, subcutaneous.
Setting [11] is: duration: 2 years, oral, diet, reduced weight gains hematological females.

Take `CC(C)(c1ccc(O)cc1)c1ccc(O)cc1` [Bisphenol A]: the lowest-observed-adverse-effect level (LOAEL) stood at 50 mg/kg-day in data set [1] (oral, reduced mean body weight) and 1000 ppm in data set [3] (reproduction developmental, duration: 103 weeks, oral, diet, Fischer 344, generation: F0). In addition, the median lethal dose (LD50) was 2230 mg/kg in data set [2]; 4100 mg/kg and 3300 mg/kg in data set [3] (acute, oral, Fischer 344). The LC50 in data set [3] (acute, inhalation, particle, Fischer 344) is more than 170 mg/L. Further, the NOAEL in data set [3] (developmental, duration: 10 days, oral, gavage) is more than 640 mg/kg-day; in data set [3] (reproduction developmental, duration: 13 weeks, oral, diet, generation: F0) it was 75 ppm; in data set [3] (reproduction developmental, duration: 13 weeks, oral, diet, generation: F1), 750 ppm; in data set [4] (subchronic, duration: 13 weeks, oral, Whole body: Decreased weight), 750 ppm. In data set [5], the LOEL turned out to be 20 mg/kg-day. In addition, the NOEL in data set [5] is 2 mg/kg-day; in data set [8] (gavage, Crj:CD, Deaths + Clinical Observation: Loose stool Locomotor activity decrease, Hypopnea Subnormal temperature decrease + Body Weight Changes: …), 40 mg/kg-day. For the same compound, the LEL came to 400 mg/kg-day in data set [6] (setting [9]); 200 mg/kg-day in data set [6] (duration: 2 days, injection, subcutaneous); 0.5 mg/kg-day in data set [6] (duration: 4 days, injection, intraperitoneal); 11 mg/kg-day in data set [6] (setting [10]); 150 mg/kg-day in data set [6] (duration: 7 days, lactation); 0.00228 mg in data set [7] (duration: 0.17 days, injection, subcutaneous). Moreover, the LEL in data set [7] (setting [9]) is 10 mg/kg-day; in data set [7] (duration: 3 days, injection, intraperitoneal) it was 20 mg/kg-day; in data set [7] (duration: 3 days, osmotic minipump), 100 mg/kg-day; in data set [7] (setting [10]), 100 mg/kg-day.
In the case of `COC(=O)c1ccc(C(=O)OC)cc1` [Dimethyl terephthalate], the LOAEL in data set [1] (oral, diet, chronic kidney inflammation) stood at 125 mg/kg-day; in data set [4] (chronic, duration: 103 weeks, oral, diet, Kidney: Inflammation), 125 mg/kg-day. For the same compound, the no-observed-adverse-effect level (NOAEL) in data set [8] (duration: 90 days, diet, Body Weight Changes: Weight gain decrease + Histopathology: Liver: Hepatocyte hypertrophy, diffuse) stood at 480 mg/kg-day.
In data set [1] (oral, renal damage), `CC(=O)[O][Hg][c]1ccccc1` [Phenylmercuric acetate] displayed an LOAEL of 0.042 mg/kg-day and a no-observed-adverse-effect level (NOAEL) of 0.0084 mg/kg-day. Besides, the NOAEL in data set [4] (chronic, duration: 2 years, oral, diet, Kidney: Damage) was determined as 0.0084 mg/kg-day.
The compound `CCNc1nc(Cl)nc(NCC)n1` [Simazine] displayed an LOAEL in data set [1] (setting [11]) of 5.3 mg/kg-day. Moreover, the NOAEL in data set [1] (setting [11]) was 0.52 mg/kg-day; in data set [4] (chronic, duration: 2 years, oral, diet, Blood: Hematological effects + Whole body: Decreased weight gain), 0.52 mg/kg-day. For the same compound, the NOEL in data set [6] (duration: 7 days, Wistar, inactive + Negative + neither + AST wt decreased at 75 and above / doses above 75 associated with >10% decrease in body wt / cite a …) came to 6.25 mg/kg-day; in data set [6] (duration: 10 days, Sprague-Dawley, inactive + Negative + Negative + neither + AST wt decreased at 75 and above / doses above 75 associated with >10% decrease in body wt), 25 mg/kg-day.
For the compound `C=CBr` [Vinyl bromide], the lowest-observed-adverse-effect level (LOAEL) in data set [1] (inhalation, hypertrophy, basophilic and eosinophilic foci, in the liver) was 43 mg/m3; in data set [4] (chronic, duration: 24 months, inhalation, intermittent, Liver: Basophilic foci + Liver: Eosinophilic foci + Liver: Hypertrophy) it was 42.4 mg/m3.
On to `S=C([S-])NCCNC(=S)[S-].[Zn+2]` [Zineb], for which the LOAEL in data set [1] (oral, thyroid hyperplasia) came out at 25 mg/kg-day; in data set [4] (chronic, duration: 2 years, oral, diet, hyperplasia), 25 mg/kg-day.

The term LOAEL denotes the lowest tested level that showed an adverse finding. By LD50 is commonly meant the dose expected to kill half of the subjects tested. Read a high LD50 as a less toxic substance. As usually defined, the LC50 is the concentration lethal to half of the exposed cells or organisms. A word on the NOAEL: it is the highest dose or exposure tested at which no adverse effect was seen.
